ChEMBL document CHEMBL3046954, “Identification of important structural features of thiazolo[4,5-d]pyrimidines required for potent antifungal activity” (2011)
Values after ≈ are worked out from the molar mass of the structure shown.

How the values were obtained:
Format in all cases: functional
Aspergillus clavatus = assay: Antifungal activity against Aspergillus clavatus MTCC 1323 by broth dilution method
Aspergillus niger = assay: Antifungal activity against Aspergillus niger MTCC 282 by broth dilution method
Candida albicans = assay: Antifungal activity against Candida albicans MTCC 227 by broth dilution method

Row | Compound | MIC (Aspergillus clavatus) | MIC (Aspergillus niger) | MIC (Candida albicans)
1 | COc1ccc(-n2c(=S)sc3c(=O)n(-c4ccc(Br)cc4)c(Nc4ccc(Br)cc4)nc32)cc1 | 0.2 µg/mL (≈ 0.324 µM) | 4 µg/mL (≈ 6.49 µM) | 0.8 µg/mL (≈ 1.3 µM)
2 | COc1ccc(Nc2nc3c(sc(=S)n3-c3ccccc3OC)c(=O)n2-c2ccc(OC)cc2)cc1 | 0.8 µg/mL (≈ 1.54 µM) | 4 µg/mL (≈ 7.71 µM) | 16 µg/mL (≈ 30.9 µM)
3 | O=c1c2sc(=S)n(-c3ccc(Cl)c(Cl)c3)c2nc(Nc2ccc(Br)cc2)n1-c1ccc(Br)cc1 | 16 µg/mL (≈ 24.4 µM) | 4 µg/mL (≈ 6.1 µM) | 0.8 µg/mL (≈ 1.22 µM)
4 | COc1ccc(Nc2nc3c(sc(=S)n3-c3ccccc3)c(=O)n2-c2ccc(OC)cc2)cc1 | 0.2 µg/mL (≈ 0.409 µM) | 0.8 µg/mL (≈ 1.64 µM) | 0.5 µg/mL (≈ 1.02 µM)
5 | Cc1ccc(Nc2nc3c(sc(=S)n3-c3ccccc3)c(=O)n2-c2ccc(C)cc2)cc1 | 0.8 µg/mL (≈ 1.75 µM) | 12.8 µg/mL (≈ 28 µM) | 0.8 µg/mL (≈ 1.75 µM)
6 | NYSTATIN | 7 µg/mL | 7 µg/mL | 8 µg/mL
7 | COc1ccc(Nc2nc3c(sc(=S)n3-c3ccc(OC)cc3)c(=O)n2-c2ccc(OC)cc2)cc1 | 4 µg/mL (≈ 7.71 µM) | 0.5 µg/mL (≈ 0.964 µM) | 4 µg/mL (≈ 7.71 µM)
8 | O=c1c2sc(=S)n(-c3ccccc3)c2nc(Nc2ccccc2)n1-c1ccccc1 | 25.6 µg/mL (≈ 59.7 µM) | 25.6 µg/mL (≈ 59.7 µM) | 4 µg/mL (≈ 9.33 µM)
9 | COc1ccccc1-n1c(=S)sc2c(=O)n(-c3c(C)cccc3C)c(Nc3c(C)cccc3C)nc21 | 4 µg/mL (≈ 7.77 µM) | 4 µg/mL (≈ 7.77 µM) | 4 µg/mL (≈ 7.77 µM)
10 | COc1ccc(Nc2nc3c(sc(=S)n3-c3ccc(Br)cc3)c(=O)n2-c2ccc(OC)cc2)cc1 | 12.8 µg/mL (≈ 22.6 µM) | 0.4 µg/mL (≈ 0.705 µM) | 4 µg/mL (≈ 7.05 µM)
11 | COc1ccc(Nc2nc3c(sc(=S)n3-c3ccc(Cl)c(Cl)c3)c(=O)n2-c2ccc(OC)cc2)cc1 | 0.8 µg/mL (≈ 1.44 µM) | 4 µg/mL (≈ 7.18 µM) | 0.8 µg/mL (≈ 1.44 µM)
12 | O=c1c2sc(=S)n(-c3ccc(F)c(Cl)c3)c2nc(Nc2ccc(Br)cc2)n1-c1ccc(Br)cc1 | 4 µg/mL (≈ 6.26 µM) | 4 µg/mL (≈ 6.26 µM) | 4 µg/mL (≈ 6.26 µM)
13 | CCn1c(=S)sc2c(=O)n(-c3ccc(OC)cc3)c(Nc3ccc(OC)cc3)nc21 | 16 µg/mL (≈ 36.3 µM) | 0.8 µg/mL (≈ 1.82 µM) | 2 µg/mL (≈ 4.54 µM)
14 | COc1ccccc1Nc1nc2c(sc(=S)n2-c2ccccc2)c(=O)n1-c1ccccc1OC | 12.8 µg/mL (≈ 26.2 µM) | 12.8 µg/mL (≈ 26.2 µM) | 4 µg/mL (≈ 8.19 µM)
15 | COc1ccc(Nc2nc3c(sc(=S)n3-c3ccc(F)c(Cl)c3)c(=O)n2-c2ccc(OC)cc2)cc1 | 0.2 µg/mL (≈ 0.37 µM) | 4 µg/mL (≈ 7.39 µM) | 0.4 µg/mL (≈ 0.739 µM)
16 | OC(Cn1cncn1)(Cn1cncn1)c1ccc(F)cc1F [FLUCONAZOLE] | 16 µg/mL (≈ 52.2 µM) | 16 µg/mL (≈ 52.2 µM) | 0.5 µg/mL (≈ 1.63 µM)
17 | COc1ccc(-n2c(=S)sc3c(=O)n(-c4ccc(F)cc4)c(Nc4ccc(F)cc4)nc32)cc1 | 0.4 µg/mL (≈ 0.809 µM) | 0.5 µg/mL (≈ 1.01 µM) | 0.4 µg/mL (≈ 0.809 µM)
18 | Cc1cccc(C)c1Nc1nc2c(sc(=S)n2-c2ccccc2)c(=O)n1-c1c(C)cccc1C | 4 µg/mL (≈ 8.25 µM) | 25.6 µg/mL (≈ 52.8 µM) | 4 µg/mL (≈ 8.25 µM)
19 | COc1ccc(-n2c(=S)sc3c(=O)n(-c4ccccc4OC)c(Nc4ccccc4OC)nc32)cc1 | 25.6 µg/mL (≈ 49.4 µM) | 0.4 µg/mL (≈ 0.771 µM) | 12.8 µg/mL (≈ 24.7 µM)
